Source: ChEMBL document CHEMBL1201862, “PubChem BioAssay data set” (2004)
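Cultured in 96-well plates, cells were exposed to test compound for 48 hours across five concentrations. At the GI50, growth is halved.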 Calls of active or inactive are those of the source. Rule as the data show it: active = GI50 up to about 1.1 µM and inactive = higher.

How the values were obtained:
Experiment in all cases: NCI-60 cell line screen, 48 h
EKVX = test system: EKVX
OVCAR-5 = test system: OVCAR-5
HCT-15 = test system: HCT-15
SN12C = test system: SN12C
SK-OV-3 = test system: SK-OV-3
OVCAR-3 = test system: OVCAR-3
Malme-3M = test system: Malme-3M
OVCAR-4 = test system: OVCAR-4
SF-295 = test system: SF-295
CAKI-1 = test system: CAKI-1
SK-MEL-5 = test system: SK-MEL-5
SNB-19 = test system: SNB-19
PC-3 = test system: PC-3
HCC 2998 = test system: HCC 2998
UO-31 = test system: UO-31
UACC-62 = test system: UACC-62
MCF7 = test system: MCF7
CCRF-CEM = test system: CCRF-CEM
Hs-578T = test system: Hs-578T

| SMILES | GI50 (EKVX) | GI50 (OVCAR-5) | GI50 (HCT-15) [µM] | GI50 (SN12C) | GI50 (SK-OV-3) | GI50 (OVCAR-3) | GI50 (Malme-3M) | GI50 (OVCAR-4) | GI50 (SF-295) | GI50 (CAKI-1) | GI50 (SK-MEL-5) | GI50 (SNB-19) | GI50 (PC-3) | GI50 (HCC 2998) | GI50 (UO-31) | GI50 (UACC-62) | GI50 (MCF7) | GI50 (CCRF-CEM) | GI50 (Hs-578T) |
| --- | --- | --- | --- | --- | --- | --- | --- | --- | --- | --- | --- | --- | --- | --- | --- | --- | --- | --- | --- |
| N#Cc1c(-c2ccccc2)cc(Nc2cccc(C(F)(F)F)c2)n2c1nc1ccccc12 | 1.2 µM (inactive) | 2.68 µM (inactive) | 1.38 | 0.519 µM (active) | 1.11 µM (active) | 0.561 µM (active) | 1.27 µM (inactive) | 0.912 µM (active) | 1.7 µM (inactive) | 1.91 µM (inactive) | 0.548 µM (active) | – | – | – | – | – | – | – | – |
| NCCC(=O)N[C@H](Cc1cc(O)c(O)c(SCC(NC(=O)CC[C@H](N)C(=O)O)C(=O)NCC(=O)O)c1)C(=O)O (some centres not stated) | > 50 µM (inactive) | > 50 µM (inactive) | > 50 | > 50 µM (inactive) | > 50 µM (inactive) | – | > 50 µM (inactive) | > 50 µM (inactive) | > 50 µM (inactive) | > 50 µM (inactive) | > 50 µM (inactive) | > 50 µM (inactive) | > 50 µM (inactive) | > 50 µM (inactive) | > 50 µM (inactive) | > 50 µM (inactive) | > 50 µM (inactive) | – | – |
| CC(=O)N1CCN(c2ccc(OCC3COC(Cn4ccnc4)(c4ccc(Cl)cc4Cl)O3)cc2)CC1 (configuration not stated) [KETOCONAZOLE] | – | 30.3 µM (inactive) | 25.8 | 52.4 µM (inactive) | 55.8 µM (inactive) | 28.1 µM (inactive) | 28.8 µM (inactive) | 39.1 µM (inactive) | – | 35.5 µM (inactive) | 12.2 µM (inactive) | – | – | 28.4 µM (inactive) | 25.8 µM (inactive) | 15.4 µM (inactive) | – | 27.6 µM (inactive) | – |
| NNC(=O)Cn1c2ccc(Br)cc2c2nc3ccccc3nc21 | 9.59 µM (inactive) | 53.7 µM (inactive) | – | > 100 µM (inactive) | 43.7 µM (inactive) | 23.2 µM (inactive) | – | – | 21.8 µM (inactive) | > 100 µM (inactive) | > 100 µM (inactive) | 80 µM (inactive) | > 100 µM (inactive) | – | 19.9 µM (inactive) | 56.5 µM (inactive) | 69.3 µM (inactive) | – | – |
| Cc1ccc2c(c1)C(=O)/C(=C1/CCc3ccc(C)cc31)C2 | > 100 µM (inactive) | > 100 µM (inactive) | > 100 | > 100 µM (inactive) | > 100 µM (inactive) | > 100 µM (inactive) | > 100 µM (inactive) | 30.4 µM (inactive) | > 100 µM (inactive) | – | > 100 µM (inactive) | 87.5 µM (inactive) | – | > 100 µM (inactive) | > 100 µM (inactive) | > 100 µM (inactive) | > 100 µM (inactive) | 86.5 µM (inactive) | > 100 µM (inactive) |
| CCCCC(=O)Nc1ccc2cc(C(=O)OC)c(ON3C(=O)c4ccccc4C3=O)nc2n1 | 33.1 µM (inactive) | 23 µM (inactive) | 40.6 | 28.9 µM (inactive) | 48.1 µM (inactive) | 37.1 µM (inactive) | 17.9 µM (inactive) | 28.1 µM (inactive) | 33.8 µM (inactive) | 22.2 µM (inactive) | 63.8 µM (inactive) | 27.9 µM (inactive) | 28.4 µM (inactive) | 22.6 µM (inactive) | 18.2 µM (inactive) | – | 43.2 µM (inactive) | 71.3 µM (inactive) | – |
| COc1cc(/C=C2\[C@@H]3NC(Cc4c(OC)c(C)c(OC)c(OC)c43)C(=O)N2Cc2ccccc2)c(OC)c(C)c1OC | 29.4 µM (inactive) | 41.3 µM (inactive) | – | 40.3 µM (inactive) | 26.2 µM (inactive) | 31.7 µM (inactive) | 28.2 µM (inactive) | 32.3 µM (inactive) | 40.8 µM (inactive) | 48 µM (inactive) | 34.1 µM (inactive) | 80.5 µM (inactive) | – | 38.6 µM (inactive) | 27 µM (inactive) | 47.5 µM (inactive) | – | 30.8 µM (inactive) | – |
